{"source": "patent US10016414B2", "about": "“Modulation of ubiquitination of synaptic proteins for the treatment of neurodegenerative and psychiatric disorders” (UNIVERSITY OF MASSACHUSETTS, priority 2010, dated 2018)", "key": {"[1]": {"target": "T1, interaction between PSD-95 and Mdm2 (Mus musculus, UniProt P23804)", "T1 construct": "from tissue; host or cells: acute mouse forebrain slices", "T1 sequence (P23804 whole entry)": "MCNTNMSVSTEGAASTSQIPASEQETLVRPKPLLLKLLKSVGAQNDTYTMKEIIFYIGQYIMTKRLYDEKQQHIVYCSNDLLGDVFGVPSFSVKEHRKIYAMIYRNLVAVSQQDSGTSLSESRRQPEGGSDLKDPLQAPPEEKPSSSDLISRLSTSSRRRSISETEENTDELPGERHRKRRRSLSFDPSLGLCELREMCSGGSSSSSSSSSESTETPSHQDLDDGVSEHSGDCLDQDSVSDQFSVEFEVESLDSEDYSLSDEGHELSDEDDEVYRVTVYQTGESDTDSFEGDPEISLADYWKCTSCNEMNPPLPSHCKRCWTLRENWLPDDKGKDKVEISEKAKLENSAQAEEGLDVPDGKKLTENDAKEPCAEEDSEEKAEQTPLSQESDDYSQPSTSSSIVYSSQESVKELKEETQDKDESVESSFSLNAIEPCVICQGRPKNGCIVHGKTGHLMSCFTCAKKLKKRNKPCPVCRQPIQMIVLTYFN", "assay": "Mdm2 binding to PSD-95 in acute forebrain slices (Mdm2 immunoprecipitation, PSD-95 Western blot)", "type": "cell-based", "details": "Nutlin-3 5 μM for 30 min, normalized to absence of Nutlin-3", "description": "A. Immunoblot showing the interaction between Mdm2 and PSD-95 in the presence or absence of the Mdm2 inhibitor Nutlin-3. Acute mouse forebrain slices were treated with Nutlin-3 (5 μM for 30 min), followed by immunoprecipitation of Mdm2. Immunoprecipitates were subjected to Western blot analysis with anti-PSD-95 and anti-Mdm2 antibodies. IgG: control immunoprecipitation with mouse IgG.\nB. A bar graph depicting the proportion of PSD-95 bound to Mdm2 from FIG. 6A, normalized to levels of PSD-95 bound to Mdm2 in the absence of Nutlin-3. There was a 60% decrease in the interaction of PSD-95 with Mdm2.\nTo test this hypothesis, acute mouse forebrain slices were prepared and subjected to treatment with or without Nutlin-3. The interaction between PSD95 and Mdm2 was assessed by immunoprecipitation of Mdm2, followed by Western blot analysis to assess the extent of PSD-95 binding. Consistent with PSD-95 binding to the same region of Mdm2 as other Mdm2 substrates, Nutlin-3 decreased the interaction between PSD-95 with Mdm2 by 60% (FIGS. 6A and B)."}, "[2]": {"system": "surface GluA1 (AMPAR) in hippocampal neurons", "assay": "Aβ-induced AMPAR endocytosis: surface GluA1 in cultured hippocampal neurons", "type": "cell-based, rat", "details": "for GluA1 surface expression (GluA1 puncta normalized to SV2 puncta and to naïve cultures): 2 hrs, naïve 100%±4%, n=3", "description": "A. Micrograph showing GluA2 surface expression upon Aβ treatment in the presence or absence of Nutlin-3. Rat hippocampal neurons were cultured, and treated with Aβ or Aβ together with either Nutlin-3 (5 μM) or HLI373 (15 μM) for 2 hours. The final concentration of Aβ was 0.3 ng/mL. Naïve and Nutlin-3 and HLI373 treatments, without Aβ treatment, were used as controls. Surface expression of AMPARs was measured by labeling the cultured neurons in vivo with an antibody to the AMPAR subunit GluA1, followed by confocal microscopy and immunofluorescence quantification by MetaMorph. The number of GluA1 puncta was normalized to SV2 puncta (a presynaptic marker) and to the value in control naïve cultures. […] Scale bar=5 μm. B. Bar graph showing quantification of the percentage of surface GluA1 in response to the various treatment described in A. Results are presented as mean±SEM.\nSoluble amyloid beta (Aβ) peptides contribute directly to synapse loss and decreased dendritic spine density and glutamate receptors at the synapse. Moreover, Aβ has been reported to induce AMPAR internalization in cultured neurons. To evaluate the effect of Mdm2 inhibitors on this process, cultured rat hippocampal neurons were treated for 2 hrs with Aβ (or Aβ together with either Nutlin-3 (5 μM) or HLI-373 (15 μM). Aβ can be prepared from 7PA2 Chinese hamster ovary (CHO) cells stably expressing human amyloid precursor protein (APP)751 containing the V717 mutation (Walsh et al., 2005; Shankar et al., 2007; Shankar et al., 2011), and is also available commercially from, e.g., rPeptide (Bogart, G A). The concentration of Aβ in the hippocampal cultures was 0.3 ng/mL. Naïve and Nutlin-3 and HLI-373 treatments were used as controls. Surface expression of AMPARs was measured by labeling the cultured neurons in vivo with an antibody to the AMPAR subunit GluA1, followed by confocal microscopy and immunofluorescence quantification by MetaMorph. The number of GluA1 puncta was normalized to SV2 puncta (a presynaptic marker) and to the value in control naïve cultures (see FIGS. 8A and B).\nMinimum inhibitor concentrations of Nutlin-3a or HLI-373, as well as any other Mdm2 inhibitor identified using the screens described supra, can be readily determined by using different ranges of inhibitor concentrations and assessing the effects of the particular concentrations on surface expression of AMPARs. Similar results are expected with other inhibitors of PSD-95 ubiquitination by Mdm2, such as PSD-95 inhibitors."}, "[3]": {"system": "surface GluA2 (AMPAR) in hippocampal neurons", "assay": "NMDA-induced AMPAR endocytosis: surface GluA2 by antibody feeding in hippocampal cultures", "type": "cell-based, rat", "details": "inhibitor 5 μM for 30 min before NMDA 100 μM for 3 min, then 15 min; naïve 100%±9.47%; n=3", "description": "A. Micrograph showing GluA2 surface expression upon NMDA treatment in the presence or absence of Nutlin-3. Cultured hippocampal neurons were subjected to an antibody feeding protocol using an antibody that recognizes an extracellular domain of GluA2. The neurons were subsequently pretreated with Nutlin-3 (5 μM for 30 min) prior to NMDA treatment (100 μM for 3 min), followed by agonist washout. Neurons were incubated for an additional 15 min (with or without Nutlin-3) before immunocytochemical analysis of PSD-95 and surface GluA2 by confocal microscopy.\nB. A bar graph depicting the proportion of GluA2 found at the surface of cultured hippocampal neurons upon treatment with or without NMDA, in the presence or absence of Nutlin-3. Results are presented as mean±SEM.\nBrief stimulation of NMDARs induces AMPAR endocytosis in cultured neurons (Colledge et al., 2003; Bhattacharyya et al., 2009). To determine whether Nutlin-3a antagonizes NMDA-induced AMPAR endocytosis, measured as loss of surface AMPAR staining, the surface expression of GluA2 (a subunit of AMPARs in rat hippocampal cultures) was assessed. Surface GluA2 were labeled in vivo by an antibody feeding protocol using an antibody that recognizes an extracellular domain of GluA2 (Ehlers, 2000; Lin et al., 2000; Bhattacharyya et al., 2009). Neurons were pretreated with Nutlin-3a (5 μM for 30 min) prior to NMDA treatment. After brief stimulation with NMDA (100 μM for 3 min) and agonist washout, neurons were incubated for an additional 15 min (with or without Nutlin-3a) before immunocytochemical analysis of PSD-95 and surface GluA2 by confocal microscopy under the same settings. Immunostained puncta were quantified using MetaMorph software (3 neurons from 2 coverslips with approximately 450 puncta analyzed/condition) and the number of GluA2 puncta was normalized to the number of PSD-95 puncta.\nNaïve and NMDA-stimulated conditions were used as controls. […]"}, "[4]": {"details": "oral gavage, 100 mg/kg once daily; between 1-8 hours after administration (Zhang et al., 2011); cited from earlier work"}}, "data": [{"smiles": "COc1ccc(C2=N[C@@H](c3ccc(Cl)cc3)[C@@H](c3ccc(Cl)cc3)N2C(=O)N2CCNC(=O)C2)c(OC(C)C)c1", "note": "[Nutlin-3]", "values": [{"measurement": "decrease in the interaction of PSD-95 with Mdm2", "setting": "[1]", "result": 60, "unit": "%"}, {"measurement": "effect on loss of surface GluA1 induced by Aβ", "setting": "[2]; Aβ 0.3 ng/mL, 2 hours, Nutlin-3 5 μM, HLI373 15 μM", "result": "prevented the loss of surface GluA1 induced by Aβ treatment"}, {"measurement": "GluA1 surface expression (GluA1 puncta normalized to SV2 puncta and to naïve cultures)", "setting": "[2]; inhibitor alone, without Aβ, Nutlin-3 5 μM, HLI-373 15 μM", "result": "90.6%±3.71%"}, {"measurement": "GluA2 surface expression (GluA2 puncta normalized to PSD-95 puncta, versus naïve control)", "setting": "[3]", "result": "60.86±3.98", "unit": "%"}]}, {"smiles": "COc1ccc(C2=NC(c3ccc(Cl)cc3)C(c3ccc(Cl)cc3)N2C(=O)N2CCNC(=O)C2)c(OC(C)C)c1", "note": "(single isomer, unassigned; (-)) [Nutlin-3a, (−)-4-(4,5-bis(4-chlorophenyl)-2-(2-isopropoxy-4-methoxyphenyl)-4,5-dihydro-1H-imidazole-1-carbonyl)piperazin-2-one]", "values": [{"measurement": "GluA1 surface expression (GluA1 puncta normalized to SV2 puncta and to naïve cultures)", "setting": "[2]; co-treatment with Aβ 0.3 ng/mL, Nutlin 5 μM, HLI373 15 μM", "result": "152.29%±19.88%"}, {"measurement": "concentration in brain tissue", "setting": "[4]", "result": "1000 to 2000", "unit": "nM"}]}]}
